Data published in the NIST ThermoML archive (doi:10.1007/s10765-015-1980-6).

Test: xn = mol fraction of the nth substance listed
Settings: 101 kPa, Liquid; for speed of sound: Frequency=2 MHz; for mass density: Pycnometric method

OCCCCO [1,4-butanediol] + OCCOCCO
speed of sound [m/s], Linear variable-path acoustic interferometer
Settings	x2 = 0	x2 = 0.108	x2 = 0.1977	x2 = 0.2897	x2 = 0.4096	x2 = 0.509	x2 = 0.6116	x2 = 0.6912	x2 = 0.7992	x2 = 0.8838
298.15 K	1601.6	1568.1	1549.9	1543.5	1546.2	1552.2	1558.9	1564.5	1571.3	1575.3
303.15 K	1589.3	1558.9	1542	1535.7	1538.6	1544	1550.2	1555.3	1561.2	1564.6
308.15 K	1577.7	1549.8	1534.4	1528.2	1531.1	1536.3	1541.8	1546.4	1551.7	1554.7
313.15 K	1565.6	1540.6	1526.6	1520.3	1523.2	1528.1	1533.1	1537.2	1541.7	1544.4

mass density [kg/m3]
Settings	x2 = 0	x2 = 0.108	x2 = 0.1977	x2 = 0.2897	x2 = 0.4096	x2 = 0.509	x2 = 0.6116	x2 = 0.6912	x2 = 0.7992	x2 = 0.8838
298.15 K	1012.6	1019.9	1026.6	1035	1047	1057.6	1069.4	1078.5	1090.6	1100
303.15 K	1009.6	1017.1	1024	1032.3	1044.3	1054.9	1066.5	1075.6	1087.6	1096.8
308.15 K	1006.7	1014.4	1021.4	1029.6	1041.6	1052.1	1063.7	1072.6	1084.5	1093.6
313.15 K	1003.7	1011.7	1018.7	1027	1038.9	1049.4	1060.8	1069.6	1081.3	1090.3

OCCOCCO [diethylene glycol] + CCC(C)O
speed of sound [m/s], Linear variable-path acoustic interferometer
Settings	x1 = 0.1097	x1 = 0.2096	x1 = 0.2951	x1 = 0.3876	x1 = 0.512	x1 = 0.592	x1 = 0.6771	x1 = 0.7984	x1 = 0.8962	x1 = 1
298.15 K	1243.1	1273.6	1300.5	1330.6	1372	1400	1431.4	1480.5	1525.1	1579.3
303.15 K	1225.2	1256.7	1283.5	1313.5	1356.2	1386.1	1418.2	1468.2	1513.4	1568
308.15 K	1207.6	1239.8	1266	1296	1339.4	1370.1	1403	1454.1	1501.7	1557.3
313.15 K	1190.1	1222.7	1249.1	1279.3	1323.4	1354.9	1389.2	1441.2	1490	1546.1

mass density [kg/m3]
Settings	x1 = 0.1097	x1 = 0.2096	x1 = 0.2951	x1 = 0.3876	x1 = 0.512	x1 = 0.592	x1 = 0.6771	x1 = 0.7984	x1 = 0.8962	x1 = 1
298.15 K	838.7	871.6	899.5	929.3	968.6	993.4	1019.2	1055.1	1083.2	1112.7
303.15 K	834.7	867.7	895.7	925.5	964.9	989.8	1015.8	1051.8	1079.9	1109.3
308.15 K	830.7	863.9	891.9	921.8	961.2	986.2	1012.3	1048.4	1076.6	1105.9
313.15 K	826.8	860.1	888.1	918	957.6	982.6	1008.9	1045.1	1073.3	1102.5

OCCOCCO [diethylene glycol] + CCCCO
Settings	mass density, 298.15 K [kg/m3]	mass density, 303.15 K [kg/m3]	mass density, 308.15 K [kg/m3]	mass density, 313.15 K [kg/m3]	speed of sound, 298.15 K [m/s]	speed of sound, 303.15 K [m/s]	speed of sound, 308.15 K [m/s]	speed of sound, 313.15 K [m/s]
x1 = 0.1095	840.7	837	833.4	829.7	1265.9	1249.5	1232.3	1215.9
x1 = 0.2096	872.6	868.9	865.3	861.6	1294	1277.8	1261.3	1245.8
x1 = 0.2955	899.7	896.1	892.4	888.8	1320.9	1305.3	1289	1273.5
x1 = 0.3874	928.5	924.9	921.2	917.6	1350.8	1335.3	1318.7	1303.2
x1 = 0.5122	967.1	963.5	959.9	956.3	1392.3	1377.7	1361.9	1347.4
x1 = 0.592	991.5	988	984.4	980.9	1419.3	1406	1391.6	1378
x1 = 0.677	1017.3	1013.7	1010.2	1006.7	1448.9	1436.8	1424.2	1411.6
x1 = 0.7986	1053.5	1050.1	1046.6	1043.1	1492.7	1481.1	1470.1	1459.2
x1 = 0.896	1082.3	1078.8	1075.4	1072	1531.3	1520.6	1510	1500
x1 = 1	1112.7	1109.3	1105.9	1102.5	1579.3	1568	1557.3	1546.1
